What was measured:
AKT1/PKBα = molecular target: T1, AKT1/PKBα (Homo sapiens, UniProt P31749); experiment: Akt1 enzyme inhibitory activity, AKT1/PKBα KinEASE FP Fluorescein Green Assay; assay type: biochemical; details: fluorescence polarization kit assay; read-out: Akt1 IC50 (grade)
T1 construct: purchased
Description: (§1) Compound AZD5363 (NCT02208375, NCT02208375, NCT01625286), which have entered the clinical phase II study, was used as a positive control, and the compound was assayed against common tumour cell lines (human ovarian cancer cell line OVCAR-8 and human colon cancer cell line HCT-116) by MTT assay, at the same time, the akt1 enzyme inhibitory activity (IC50) was evaluated using a commercial Akt1 kit.
2) Test method for the inhibitory activity of the compound of the present invention against Akt1 enzyme:
The AKT1/PKBα KinEASE™ FP Fluorescein Green Assay (Kinase Green Fluorescence Detection System) was used to detect the inhibitory activity of the compound on AKT1/PKBα.
Fluorescence polarization detection protein kinase B employs the principle of a competitive reaction: a fluorescently labeled phosphorylated tracer and an unlabeled phosphorylated product produced by the reaction of protein kinase B will compete with the anti-serine antibody for binding. In a reaction mixture […], when a part of the fluorescent tracer binds to the antibody, it causes a higher polarization value. However, in the reaction solution mixture containing the phosphorylated product, less tracer binds to the antibody (the fluorescent tracer was replaced from the antibody) and the emitted signal was depolarized. Therefore, the change in polarization was directly related to the activity of protein kinase B in the reaction.
The compound of the present invention and the positive control AZD5363 were dissolved in dimethyl sulfoxide (DMSO) and diluted to a concentration of 50 μM. At room temperature, 0.25 μl of the compound sample and the positive control at a concentration of 50 μM were taken and added to the 384-well plate, and three parallel wells were set for each sample, and then 10 μl of STK Substrate 3, Working Solution, 5 μl AKT1/PKBα Working Solution, 10 μl ATP Working Solution were added to each sample well plate with vibrating gently and shaking for a few minutes. The reaction starts after 10 μl of ATP Working Solution was added to the well, and the reaction was timed at room temperature for 1 hour. After one hour, 5 μl of STK Stop Mix and 5 μl of STK Antibody Mix were added to each well respectively to stop the reaction. After the addition completes, it was allowed to stand at room temperature for four hours, and the polarization value of the sample was detected by the fluorescence polarization of the microplate reader (it was effective to detect its signal within 24 hours), and the inhibition rate of the compound was calculated by the polarization value, and then IC50 was calculated.
Four sets of controls were set in the experiment, namely Buffer Control Wells, Tracer Control Wells, No Enzyme Wells, and a blank dimethyl sulfoxide control. The resulting data was used to calculate the inhibition rate.
The activity of the compound was divided into three grades according to the size of the IC50 of the Akt inhibitory activity: “+++”, 1 nM<IC50<10 nM; “++”, 10 nM<IC50<50 nM; “+”, 50 nM<IC50.

MCF-7 = experiment: Tumour cell proliferation inhibition, MTT assay, MCF-7; assay type: cell-based, human
HGC27 = experiment: Tumour cell proliferation inhibition, MTT assay, HGC27; assay type: cell-based, human
CEM-C1 = experiment: Tumour cell proliferation inhibition, MTT assay, CEM-C1; assay type: cell-based, human
786-O = experiment: Tumour cell proliferation inhibition, MTT assay, 786-O; assay type: cell-based, human
HCT-116 = experiment: Tumour cell proliferation inhibition, MTT assay, HCT-116; assay type: cell-based, human
Description: as §1
1) The pharmacological test method for the tumour cell proliferation inhibiting activity of the compound of the present invention was as follows:
The first was the determination of in vitro tumour growth inhibitory activity and the preliminary structure-activity relationship study, and different solid tumour cell lines were used to determine the in vitro antitumour activity of the synthesized compounds.
Experimental materials: cell lines: human ovarian cancer cells (OVCAR8), colon adenocarcinoma cells (HCT-116),
Medium: OVCAR8: RPMI 1640+fetal calf serum
Drug preparation method: dissolving the drug in DMSO to make a 50 mM of stock solution, and diluting it to a certain ratio to obtain 5 different concentrations.
Tumour Cells being Cultured In Vitro:
The selected tumour cells were incubated in a, 5% of CO2 cell incubator at 37° C., and passaged until the cell density was 70 to 90% (the adherent cells were passaged with Duck's EDTA) and used for subsequent experiments.
The compound was dissolved in dimethyl sulfoxide (DMSO), diluted, and tumour cells were seeded into 4000 cells/200 μL/well in 96-well plates, and 1 μL of compound was added to each well to a final concentration of 50 μM, 10 μM, 2 μM, and 0.4 μM. 0.08 μM were incubated in a, 5% of CO2 cell incubator at 37° C. for 72 hours with DMSO (1%) as a blank control.
The calculation formula of the cell inhibition rate is: cell inhibition rate %=(control group OD value−drug group OD value)/control cell OD value×100%, and the half inhibition concentration (IC50) was determined by the Bliss method.

[1] = Oral pharmacokinetic experiment in SD rats; assay type: in vivo; details: oral administration
Description: […] The blood sampling times of the tail vein administered by intragastric administration were 0.25, 0.5, 1, 2, 4, 6, 8, 10, 24 hours; the times of blood collection by intravenous administration were 0.05, 0.1, 0.17, 0.5, 1, 2, 4, 6, 8, 10, 24 hours. 0.3 ml of whole blood was taken, and after centrifugation, 0.1 ml of plasma was taken and analysed by LC-MS.

[2] = rat, in vivo, 20 mg/kg, mean n = 3

T1 sequence (P31749 whole entry): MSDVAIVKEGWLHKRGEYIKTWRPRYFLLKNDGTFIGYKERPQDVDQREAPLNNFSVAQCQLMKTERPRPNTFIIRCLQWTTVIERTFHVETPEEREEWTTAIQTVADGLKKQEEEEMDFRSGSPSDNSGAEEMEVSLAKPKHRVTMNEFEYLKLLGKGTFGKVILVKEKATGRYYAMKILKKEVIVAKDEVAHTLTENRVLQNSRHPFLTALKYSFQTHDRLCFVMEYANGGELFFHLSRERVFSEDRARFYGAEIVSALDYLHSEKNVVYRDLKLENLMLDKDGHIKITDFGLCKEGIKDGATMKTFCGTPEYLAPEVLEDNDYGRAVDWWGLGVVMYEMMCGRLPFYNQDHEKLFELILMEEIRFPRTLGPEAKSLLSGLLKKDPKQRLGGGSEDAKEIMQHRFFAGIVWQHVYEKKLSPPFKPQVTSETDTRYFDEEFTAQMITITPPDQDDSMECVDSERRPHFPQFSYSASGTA

IC50 (AKT1/PKBα) [µM] | IC50 (HGC27; Homo sapiens, HGC-27, 72 h) [µM] | IC50 (CEM-C1; Homo sapiens, CEM/C1, 72 h) [µM] | Compound | other results
0.01 to 0.05 | 0.12 | 0.57 | Cn1ncc(Cl)c1-c1ccc(C(=O)N[C@@H]2CNCC[C@H]2c2ccc(F)c(F)c2)cc1F [reference compound] | IC50 (MCF-7; Homo sapiens, MCF7, 72 h): 6.32 µM; IC50 (786-O; Homo sapiens, 786-0, 72 h): 1.28 µM; IC50 (HCT-116; Homo sapiens, HCT-116, 72 h): 5.86 µM
0.01 to 0.05 | 0.07 | 0.07 | Cn1ncnc1-c1ccc(C(=O)N[C@@H]2CNCC[C@H]2c2ccc(F)c(F)c2)c(F)c1 [VII-26] | –
0.01 to 0.05 | 0.04 | 0.15 | Cn1ncc(Br)c1-c1ccc(C(=O)N[C@@H]2CNCC[C@H]2c2ccc(F)c(F)c2)c(F)c1 [VII-6, 4-(1-methyl-4-bromo-1H-pyrazole-yl)-N-((3S,4S)-(3,4-difluorophenyl)piperidin-3-yl)-2-fluorobenzamide] | –
0.01 to 0.05 | 0.09 | 0.13 | CCn1nccc1-c1ccc(C(=O)N[C@@H]2CNCC[C@H]2c2ccc(F)c(F)c2)c(F)c1 [VII-27, 4-(1-ethyl-1H-pyrazole-yl)-N-((3S,4S)-4-(3,4-difluorophenyl)piperidin-3-yl)-2-fluorobenzamide] | –
0.01 to 0.05 | 0.09 | 0.16 | Cc1cnn(C)c1-c1ccc(C(=O)N[C@@H]2CNCC[C@H]2c2ccc(F)c(F)c2)c(F)c1 [VII-3, 4-(1,4-dimethyl-1H-pyrazole-yl)-N-((3S,4S)-4-(3,4-difluorophenyl)piperidin-3-yl)-2-fluorobenzamide] | –
0.01 to 0.05 | 0.04 | 0.06 | [2H]C([2H])([2H])n1nccc1-c1ccc(C(=O)N[C@@H]2CNCC[C@H]2c2ccc(F)c(F)c2)c(F)c1 [VII-29, 4-(1-(methyl-d3)-1H-pyrazol-yl)-N-((3S,4S)-4-(3,4-difluorophenyl)piperidin-3-yl)-2 fluorobenzamide] | –
0.01 to 0.05 | 0.04 | 0.09 | Cn1nccc1-c1ccc(C(=O)N[C@@H]2CNCC[C@H]2c2ccc(F)c(F)c2)c(F)c1F [VII-17, 4-(1-methyl-1H-pyrazole-yl)-N-((3S,4S)-4-(3,4-difluorophenyl)piperidin-3-yl)-2,3-difluorobenzamide] | –
0.01 to 0.05 | 0.07 | – | Cn1ncc(Cl)c1-c1ccc(C(=O)N[C@@H]2CNCC[C@H]2c2ccc(F)c(F)c2)c(F)c1 [VII-2, 4-(1-methyl-4-chloro-1H-pyrazole-yl)-N-((3S,4S)-(3,4-difluorophenyl)piperidin-3-yl)-2-fluorobenzamide] | –
0.01 to 0.05 | – | – | Cn1nccc1-c1ccc(C(=O)N[C@H]2CNCC[C@@H]2c2ccc(F)c(F)c2)c(F)c1 [VII-1b, 4-(1-methyl-1H-pyrazole-yl)-N-((3R,4R)-(3,4-difluorophenyl)piperidin-3-yl)-2-fluorobenzamide] | –
0.01 to 0.05 | 0.05 | 0.1 | O=C(N[C@@H]1CNCC[C@H]1c1ccc(F)c(F)c1)c1ccc(-c2ccnn2C2CC2)cc1F [VII-28, 4-(1-cyclopropyl-1H-pyrazol-yl)-N-((3S,4S)-4-(3,4-difluorophenyl)piperidin-3-yl)-2-fluorobenzamide] | –
0.01 to 0.05 | 0.02 | 0.06 | Cn1ncc(Cl)c1-c1ccc(C(=O)N[C@@H]2CNC[C@H]2c2ccc(F)c(F)c2)c(F)c1 [VII-19, 4-(1-methyl-4-chloro-1H-pyrazole-yl)-N-((3S,4R)-(3,4-difluorophenyl)pyrrolidin-3-yl)-2-fluorobenzamide] | –
> 0.05 | – | – | Cn1ncc(C2CC2)c1-c1ccc(C(=O)N[C@@H]2CNCC[C@H]2c2ccc(F)c(F)c2)c(F)c1 [VII-4] | –

The remaining lines, values behind:

Compound | IC50 (AKT1/PKBα) [µM] | IC50 (HGC27; Homo sapiens, HGC-27, 72 h) [µM] | IC50 (CEM-C1; Homo sapiens, CEM/C1, 72 h) [µM] | other results
Cn1nccc1-c1cc(F)c(C(=O)N[C@@H]2CNC[C@H]2c2ccc(F)c(F)c2)c(F)c1 [VII-21, 4-(1-methyl-1H-pyrazole-yl)-N-((3S,4R)-(3,4-difluorophenyl)pyrrolidin-3-yl)-2,6-difluorobenzamide] | 0.01 to 0.05 | 0.08 | 0.15 | –
Cn1nccc1-c1cc(F)c(C(=O)N[C@@H]2CNCC[C@H]2c2ccc(F)c(F)c2)c(C(F)(F)F)c1 [VII-16, 4-(1-methyl-1H-pyrazole-yl)-N-((3S,4S)-4-(3,4-difluorophenyl)piperidin-3-yl)-2-trifluoromethyl-6-fluorobenzamide] | 0.01 to 0.05 | 0.08 | 0.11 | –
Cn1nccc1-c1ccc(C(=O)N[C@@H]2CNCC[C@H]2c2ccc(F)c(F)c2)c(F)c1 [VII-31, D-malate] | 0.001 to 0.01 | – | – | IC50 (MCF-7; 72 hours, D-malate): 2.96 µM; IC50 (HGC27; 72 hours, D-malate): 0.01 µM; IC50 (CEM-C1; 72 hours, D-malate): 0.1 µM; IC50 (786-O; 72 hours, D-malate): 0.65 µM; IC50 (HCT-116; 72 hours, D-malate): 1.52 µM
Cn1nccc1-c1ccc(C(=O)N[C@@H]2CNCC[C@H]2c2ccc(F)c(F)c2)c(F)c1.O=C(O)C(O)C(O)C(=O)O [VII-33, L-tartrate] | 0.001 to 0.01 | – | – | IC50 (MCF-7; 72 hours, L-tartrate): 2.25 µM; IC50 (HGC27; 72 hours, L-tartrate): 0.04 µM; IC50 (CEM-C1; 72 hours, L-tartrate): 0.09 µM; IC50 (786-O; 72 hours, L-tartrate): 0.82 µM; IC50 (HCT-116; 72 hours, L-tartrate): 3.1 µM
Cn1nccc1-c1ccc(C(=O)N[C@@H]2CNCC[C@H]2c2c(F)c(F)cc(F)c2F)c(F)c1 [VII-9, 4-(1-methyl-1H-pyrazole-yl)-N-((3S,4S)-(2,3,5,6-tetrafluorophenyl)piperidin-3-yl)-2-fluorobenzamide] | 0.01 to 0.05 | 0.08 | 0.21 | –
Cc1cc(-c2ccnn2C)cc(F)c1C(=O)N[C@@H]1CNCC[C@H]1c1ccc(F)c(F)c1 [VII-15, 4-(1-methyl-1H-pyrazole-yl)-N-((3S,4S)-4-(3,4-difluorophenyl)piperidin-3-yl)-2-methyl-6-fluorobenzamide] | > 0.05 | – | – | –
Cn1nccc1-c1cc(F)c(C(=O)N[C@@H]2CNCC[C@H]2c2ccc(F)c(F)c2)c(F)c1F [VII-13, 4-(1-methyl-1H-pyrazole-yl)-N-((3S,4S)-4-(3,4-difluorophenyl)piperidin-3-yl)-2,3,6-trifluorobenzamide] | > 0.05 | – | – | –
Cn1nccc1-c1ccc(C(=O)N[C@@H]2CNCC[C@H]2c2ccc(F)c(F)c2)c(F)c1.O=C(O)C(O)C(O)C(=O)O [VII-33] | – | – | – | 1/2 ([1]; 20 mg/kg, mean n = 3): 3.69 h; AUC0-inf ([1]; 20 mg/kg, mean n = 3): 2.16 µg·h/mL; AUC0-t ([1]; 20 mg/kg, mean n = 3): 1.95 µg·h/mL; improvement of AUC0-t over VII-1a ([1]; salt versus free form VII-1a): 30%; Cmax [1, 2]: 0.2 µg/mL; Tmax [1, 2]: 4 h
Cn1nccc1-c1cc(F)c(C(=O)N[C@@H]2CNCC[C@H]2c2ccc(F)c(F)c2)c(Cl)c1 [VII-14] | 0.01 to 0.05 | 0.1 | 0.18 | –
Cn1nccc1-c1ccc(S(=O)(=O)N[C@@H]2CNCC[C@H]2c2ccc(F)c(F)c2)c(F)c1 [VII-23, N-((3S,4S)-4-(3,4-difluorophenyl)piperidin-3-yl)-2-fluoro-4-(1-methyl-1H-pyrazol-5-yl)benzenesulfonamide] | > 0.05 | – | – | –
